From publication PMC6265919, “Acylated Aminooligosaccharides with Inhibitory Effects against α-Amylase from Streptomyces sp. HO1518” (Marine Drugs, 2018) come the findings set out here.

Structures are written as SMILES.

This assay has as its target T1, porcine pancreatic α-amylase (PPA) (Sus scrofa, UniProt P00690).
T1 sequence (P00690 16-511): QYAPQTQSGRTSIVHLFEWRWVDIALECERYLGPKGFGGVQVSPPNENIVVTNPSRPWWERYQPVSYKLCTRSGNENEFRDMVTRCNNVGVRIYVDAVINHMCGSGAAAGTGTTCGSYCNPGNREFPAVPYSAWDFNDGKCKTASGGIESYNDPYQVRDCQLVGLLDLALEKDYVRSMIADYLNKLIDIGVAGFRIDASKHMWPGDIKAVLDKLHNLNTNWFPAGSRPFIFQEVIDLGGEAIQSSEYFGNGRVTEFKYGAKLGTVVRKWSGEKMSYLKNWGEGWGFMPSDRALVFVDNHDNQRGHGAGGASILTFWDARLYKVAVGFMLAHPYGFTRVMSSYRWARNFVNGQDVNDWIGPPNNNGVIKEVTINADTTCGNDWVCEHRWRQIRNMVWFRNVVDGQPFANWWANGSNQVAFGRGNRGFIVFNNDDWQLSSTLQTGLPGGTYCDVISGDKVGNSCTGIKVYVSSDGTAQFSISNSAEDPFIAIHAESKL
In words: Porcine pancreatic α-amylase (PPA) inhibitory activity assay (starch-iodine). In kind it is biochemical. The following applies: PPA 50 U/mL, 0.2% soluble starch, phosphate buffer pH 6.9, 20 °C, 30 min; averages of three replicates. The protocol:
Porcine pancreatic α-amylase inhibitory (PPA) inhibitory activity assay was carried out reference to the procedure previously described. In brief, 5 μL of enzyme solution (PPA, 50 U/mL) and 10-fold series diluted test sample solution (inhibitors, dissolved in distilled water) were mixed and pre-incubated. 100 μL of 0.2% soluble starch (substrate, dissolved in 100 mM phosphate buffer, pH 6.9) was added and incubated at 20 °C for 30 min. The reaction was terminated by the addition of 20 μL 1 M HCl. The remaining starch was quantified by using the following method: 100 μL of the reaction solution was mixed with 25 μL of Lugol’s iodine solution. The absorption was measured at 630 nm in the 96-well plates. […] The data were imported into GraphPad Prism version 5.0 (GraphPad Software, San Diego, CA, USA, www.graphpad.com) and the IC50 values were calculated by using a standard dose response curve fitting.
Regarding `CC(=O)OC[C@H]1O[C@H](O[C@H]2[C@H](O)[C@@H](O)[C@@H](O[C@H]3[C@H](O)[C@@H](O)[C@@H](O[C@H]4[C@H](O)[C@@H](O)C(O)O[C@@H]4CO)O[C@@H]3CO)O[C@@H]2CO)[C@H](O)[C@@H](O)[C@@H]1O[C@H]1O[C@H](C)[C@@H](N[C@H]2C=C(CO)[C@@H](O[C@H]3O[C@H](CO)[C@@H](O[C@H]4O[C@H](C)[C@@H](N[C@H]5C=C(CO)[C@@H](O)[C@H](O)[C@H]5O)[C@H](O)[C@H]4O)[C@H](O)[C@H]3O)[C@H](O)[C@H]2O)[C@H](O)[C@H]1O` (stereo partly drawn) [compound 1, D6-O-acetyl-acarviostatin II03], the midpoint of inhibition, the IC50, lay at 0.029 ± 0.001 µM.

Turning to `CC(O)CC(=O)OC[C@H]1O[C@H](O[C@H]2[C@H](O)[C@@H](O)[C@@H](O[C@H]3[C@H](O)[C@@H](O)[C@@H](O[C@H]4[C@H](O)[C@@H](O)C(O)O[C@@H]4CO)O[C@@H]3CO)O[C@@H]2CO)[C@H](O)[C@@H](O)[C@@H]1O[C@H]1O[C@H](C)[C@@H](N[C@H]2C=C(CO)[C@@H](O[C@H]3O[C@H](CO)[C@@H](O[C@H]4O[C@H](C)[C@@H](N[C@H]5C=C(CO)[C@@H](O)[C@H](O)[C@H]5O)[C@H](O)[C@H]4O)[C@H](O)[C@H]3O)[C@H](O)[C@H]2O)[C@H](O)[C@H]1O` (stereo partly drawn) [compound 2, D6-O-β-hydroxybutyryl-acarviostatin II03], the IC50 – broadly, the point on the concentration scale where inhibition reaches its midpoint – was found to be 0.049 ± 0.016 µM. Then `CC(=O)OC[C@H]1O[C@H](O[C@H]2[C@H](O)[C@@H](O)[C@@H](O[C@H]3[C@H](O)[C@@H](O)[C@@H](O[C@H]4[C@H](O)[C@@H](O)C(O)O[C@@H]4CO)O[C@@H]3CO)O[C@@H]2CO)[C@H](O)[C@@H](O)[C@@H]1O[C@H]1O[C@H](C)[C@@H](N[C@H]2C=C(CO)[C@@H](O)[C@H](O)[C@H]2O)[C@H](O)[C@H]1O` (stereo partly drawn) [compound 3, D6-O-acetyl-acarviostatin I03], with 0.693 ± 0.097 µM; and `CCC(=O)OC[C@H]1O[C@H](O[C@H]2[C@H](O)[C@@H](O)[C@@H](O[C@H]3[C@H](O)[C@@H](O)[C@@H](O[C@H]4[C@H](O)[C@@H](O)C(O)O[C@@H]4CO)O[C@@H]3CO)O[C@@H]2CO)[C@H](O)[C@@H](O)[C@@H]1O[C@H]1O[C@H](C)[C@@H](N[C@H]2C=C(CO)[C@@H](O)[C@H](O)[C@H]2O)[C@H](O)[C@H]1O` (stereo partly drawn) [compound 4, D6-O-propionyl-acarviostatin I03], with 0.625 ± 0.024 µM. Then `CC(O)CC(=O)OC[C@H]1O[C@H](O[C@H]2[C@H](O)[C@@H](O)[C@@H](O[C@H]3[C@H](O)[C@@H](O)[C@@H](O[C@H]4[C@H](O)[C@@H](O)C(O)O[C@@H]4CO)O[C@@H]3CO)O[C@@H]2CO)[C@H](O)[C@@H](O)[C@@H]1O[C@H]1O[C@H](C)[C@@H](N[C@H]2C=C(CO)[C@@H](O)[C@H](O)[C@H]2O)[C@H](O)[C@H]1O` (stereo partly drawn) [compound 5, D6-O-β-hydroxybutyryl-acarviostatin I03], with 0.495 ± 0.063 µM; and `C[C@H]1O[C@H](O[C@H]2[C@H](O)[C@@H](O)[C@@H](O[C@H]3[C@H](O)[C@@H](O)[C@@H](O[C@H]4[C@H](O)[C@@H](O)[C@@H](O[C@H]5[C@H](O)[C@@H](O)C(O)O[C@@H]5CO)O[C@@H]4CO)O[C@@H]3CO)O[C@@H]2CO)[C@H](O)[C@@H](O)[C@@H]1N[C@H]1C=C(CO)[C@@H](O[C@H]2O[C@H](CO)[C@@H](O[C@H]3O[C@H](C)[C@@H](N[C@H]4C=C(CO)[C@@H](O)[C@H](O)[C@H]4O)[C@H](O)[C@H]3O)[C@H](O)[C@H]2O)[C@H](O)[C@H]1O` (stereo partly drawn) [compound 6, acarviostatin II03], with 0.029 ± 0.004 µM.
